Several values for one entry are separate records, joined by “and”; a condition that tells them apart may be missing. Equal values may be shown once.
Columns and labels:
[1] = biological target: AChE from Electrophorus electricus (Electrophorus electricus, UniProt O42275); experiment: AChE activity/kinetic assay; type: biochemical; conditions: for AChE Inhibition type: Lineweaver-Burk; for Selectivity index THA/AChE: ratio of KI of tacrine to KI of compound
hCA I = hCA I (Homo sapiens, UniProt P00915); experiment: hCA I esterase activity/kinetic assay; type: biochemical; conditions: for hCA I Inhibition type: Lineweaver-Burk; for Selectivity index AAZ/hCA I: ratio of KI of acetazolamide to KI of compound; for Selectivity index hCA II/hCA I: ratio of KI values
hCA II = hCA II (Homo sapiens, UniProt P00918); experiment: hCA II esterase activity/kinetic assay; type: biochemical; conditions: for hCA II Inhibition type: Lineweaver-Burk; for Selectivity index AAZ/hCA II: ratio of KI of acetazolamide to KI of compound; for Selectivity index hCAI/hCA II: ratio of KI values
[2] = tested on: cortex neuron cells and neuroblastoma SH-SY5Y cell line; experiment: MTT cytotoxicity test; type: cell-based; conditions: for cell viability at low concentrations: at 10 and 100 μM; for toxicity at effective concentrations on target enzymes: effective concentrations on AChE and hCAs

Chain of AChE from Electrophorus electricus (O42275 24-633): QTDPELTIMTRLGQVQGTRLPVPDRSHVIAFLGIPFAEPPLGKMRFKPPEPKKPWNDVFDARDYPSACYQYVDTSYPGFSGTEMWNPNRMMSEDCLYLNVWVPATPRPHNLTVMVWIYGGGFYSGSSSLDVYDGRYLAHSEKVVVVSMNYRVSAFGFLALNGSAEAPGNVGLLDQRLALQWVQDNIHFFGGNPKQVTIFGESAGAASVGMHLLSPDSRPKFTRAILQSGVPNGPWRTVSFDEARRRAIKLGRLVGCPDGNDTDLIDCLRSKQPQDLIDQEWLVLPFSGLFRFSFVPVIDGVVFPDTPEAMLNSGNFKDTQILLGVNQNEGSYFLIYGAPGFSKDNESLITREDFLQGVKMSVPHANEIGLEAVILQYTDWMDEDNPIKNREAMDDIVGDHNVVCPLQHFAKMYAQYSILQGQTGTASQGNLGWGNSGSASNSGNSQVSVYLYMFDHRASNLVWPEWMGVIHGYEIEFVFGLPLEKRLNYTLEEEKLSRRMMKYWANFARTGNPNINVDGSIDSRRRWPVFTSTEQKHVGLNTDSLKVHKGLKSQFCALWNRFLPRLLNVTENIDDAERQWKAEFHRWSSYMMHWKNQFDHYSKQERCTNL
Chain of hCA I (P00915 whole entry): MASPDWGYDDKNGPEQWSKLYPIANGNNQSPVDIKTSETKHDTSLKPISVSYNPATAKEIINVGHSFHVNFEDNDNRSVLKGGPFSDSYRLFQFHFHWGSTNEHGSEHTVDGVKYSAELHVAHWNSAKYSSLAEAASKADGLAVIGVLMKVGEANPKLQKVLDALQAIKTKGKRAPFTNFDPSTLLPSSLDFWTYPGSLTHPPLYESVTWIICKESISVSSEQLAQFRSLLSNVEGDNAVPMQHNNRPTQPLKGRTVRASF

| SMILES | Ki [1] [nM] | AChE Inhibition type [1] | Selectivity index THA/AChE [1] | Ki (hCA I) [nM] | hCA I Inhibition type (hCA I) | Selectivity index AAZ/hCA I (hCA I) | Selectivity index hCA II/hCA I (hCA I) | Ki (hCA II) [nM] | hCA II Inhibition type (hCA II) | Selectivity index AAZ/hCA II (hCA II) | Selectivity index hCAI/hCA II (hCA II) | cell viability at low concentrations [2] | toxicity at effective concentrations on target enzymes [2] |
| --- | --- | --- | --- | --- | --- | --- | --- | --- | --- | --- | --- | --- | --- |
| CCCCCC(=O)NS(=O)(=O)c1ccc(-c2nnc(SCC)o2)cc1 [6f, N-([4-(5-(ethylthio)-1,3,4-oxadiazol-2-yl)phenyl]sulfonyl)hexanamide] | 39.3 ± 1.13 | Competitive | 3.95 | 33.1 ± 0.47 | Competitive | 13.27 | 0.88 | 29.19 ± 0.1 | Competitive | 3.37 | 1.13 | – | – |
| CCCCCCCCC(=O)NS(=O)(=O)c1ccc(-c2nnc(SCC)o2)cc1 [6i, N-([4-(5-(ethylthio)-1,3,4-oxadiazol-2-yl)phenyl]sulfonyl)nonanamide] | 47.6 ± 1.75 | Competitive | 3.27 | 38.4 ± 0.46 | Competitive | 11.44 | 2.93 | 112.7 ± 0.36 | Competitive | 0.87 | 0.34 | – | – |
| CCCCCCC(=O)NS(=O)(=O)c1ccc(-c2nnc(SCC)o2)cc1 [6g, N-([4-(5-(ethylthio)-1,3,4-oxadiazol-2-yl)phenyl]sulfonyl)heptanamide] | 49.7 ± 2.13 | Competitive | 3.12 | 23 ± 0.29 | Competitive | 19.09 | 1.33 | 30.71 ± 0.09 | Competitive | 3.20 | 0.75 | – | – |
| CCCCCCCCCCCC(=O)NS(=O)(=O)c1ccc(-c2nnc(SCC)o2)cc1 [6j, N-([4-(5-(ethylthio)-1,3,4-oxadiazol-2-yl)phenyl]sulfonyl)dodecanamide] | 46.7 ± 1.64 | Competitive | 3.33 | 31 ± 0.41 | Competitive | 14.16 | 0.95 | 29.4 ± 0.13 | Competitive | 3.34 | 1.05 | – | – |
| CCCCC(=O)NS(=O)(=O)c1ccc(-c2nnc(SCC)o2)cc1 [6e, N-([4-(5-(ethylthio)-1,3,4-oxadiazol-2-yl)phenyl]sulfonyl)pentanamide] | 41.2 ± 0.95 | Noncompetitive | 3.77 | 47.15 ± 0.36 | Competitive | 9.31 | 0.79 | 37.24 ± 0.14 | Competitive | 2.64 | 1.27 | – | – |
| CCSc1nnc(-c2ccc(S(=O)(=O)NC(=O)c3ccccc3)cc2)o1 [6a, N-([4-(5-(ethylthio)-1,3,4-oxadiazol-2-yl)phenyl]sulfonyl)benzamide] | 52.5 ± 1.27 | Competitive | 2.96 | 21.6 ± 0.25 | Competitive | 20.29 | 0.43 | 9.33 ± 0.13 | Competitive | 10.5 and 10.53 | 2.32 | high cell viability | non-toxic |
| CCCCCCCC(=O)NS(=O)(=O)c1ccc(-c2nnc(SCC)o2)cc1 [6h, N-([4-(5-(ethylthio)-1,3,4-oxadiazol-2-yl)phenyl]sulfonyl)octanamide] | 23.1 ± 0.77 | Competitive | 6.7 and 6.72 | 34.6 ± 0.51 | Competitive | 12.69 | 3.49 | 120.8 ± 0.34 | Noncompetitive | 0.81 | 0.29 | high cell viability | non-toxic |
| CCSc1nnc(-c2ccc(S(=O)(=O)NC(=O)c3ccc(C)cc3)cc2)o1 [6b, N-([4-(5-(ethylthio)-1,3,4-oxadiazol-2-yl)phenyl]sulfonyl)-4-methylbenzamide] | 47 ± 1.71 | Competitive | 3.30 | 59.62 ± 0.53 | Noncompetitive | 7.37 | 0.30 | 17.8 ± 0.23 | Competitive | 5.51 | 3.34 | – | – |
| CCCC(=O)NS(=O)(=O)c1ccc(-c2nnc(SCC)o2)cc1 [6d, N-([4-(5-(ethylthio)-1,3,4-oxadiazol-2-yl)phenyl]sulfonyl)butyramide] | 48.4 ± 1.75 | Competitive | 3.21 | 18.7 ± 0.21 | Competitive | 23.5 and 23.54 | 1.24 | 23.2 ± 0.26 | Competitive | 4.24 | 0.81 | high cell viability | non-toxic |

— paper PMC8994094 (Molecular Diversity, 2022)
